Experimental data taken from US20030162661A1, “2,4-Diamino-1,3,5-triazines, their preparation, and their use as herbicides and plant growth regulators” (priority 1998, published 2003).

Columns and labels:
Format in all cases: in vivo
[1] = system: harmful plants such as Stellaria media, Lolium multiflorum, Amaranthus retroflexus, Sinapis alba, Avena sativa and Setaria viridis; assay: Pre-emergence effect on weeds (greenhouse pot test, visual scoring); conditions: applied pre-emergence at an application rate of 1 kg or less of active substance per hectare; scored visually after 3 to 4 weeks vs untreated controls
Description: 1 Pre-emergence Effect on Weeds
Seeds or rhizome pieces of monocotyledonous and dicotyledonous weeds plants are placed in sandy loam soil in plastic pots and covered with soil. The compounds according to the invention which are formulated in the form of wettable powders or emulsion concentrates are then applied to the surface of the soil cover in the form of an aqueous suspension or emulsion at an application rate of 600 to 800 l of water/ha (converted), in various dosages.

[2] = system: harmful plants such as Sinapis alba, Echinochloa crus- galli, Lolium multiflorum, Stellaria media, Cyperus iria, Amaranthus retroflexus, Setaria viridis and …; assay: Post-emergence effect on weeds (greenhouse pot test, visual scoring); conditions: applied post-emergence (three-leaf stage) at an application rate of 1 kg and less of active substance per hectare; scored visually after about 3 to 4 weeks vs untreated controls
Experimental: 2. Post-emergence Effect on Weeds
Seeds or rhizome pieces of monocotyledonous and dicotyledonous weeds are placed in sandy loam soil in plastic pots, covered with soil and grown in the greenhouse under good growth conditions. Three weeks after sowing, the test plants are treated in the three-leaf stage. The compounds according to the invention which are formulated as wettable powders or as emulsion concentrates are sprayed in various dosages on the green parts of the plants at an application rate of 600 to 800 l of water/ha (converted). After the test plants have remained in the greenhouse for about 3 to 4 weeks under ideal growth conditions, the effect of the preparations is scored visually by comparison with untreated controls. The agents according to the invention also have a good herbicidal post-emergence action against a broad range of economically important grass weeds and dicotyledonous weeds.

[3] = system: harmful plants which are typical for rice cultivation, such as Cyperus monti, Echinochloa crus-galli and Sagittaria pygmaea; assay: Effect on harmful plants in rice (paddy rice conditions, visual scoring); conditions: applied into the flooding water, various dosages, scored visually approximately three weeks after application
Experimental: 3. Effect on Harmful Plants in Rice
Transplanted and seeded rice and typical broad-leaved and monocotyledonous rice weeds are grown in the greenhouse to the three-leaf stage (Echinochloa crus- galli 1.5 leaf) under paddy rice conditions (depth of the water: 2-3 cm) in sealed plastic pots. They are then treated with the compounds according to the invention. To this end, the formulated active substances are suspended, dissolved or emulsified in water and applied in various dosages by pouring into the water with which the test plants are flooded. After this treatment, the test plants are placed in the greenhouse under ideal growth conditions and kept thus over the entire experimental period.
Approximately three weeks after application, the test is evalued by means of visually scoring the damage to the plants by comparison with untreated controls.

Structure (SMILES) | herbicidal action against harmful plants, pre-emergence [1] | herbicidal action against harmful plants, post-emergence [2] | herbicidal action against harmful plants typical for rice cultivation [3]
COc1cccc(CCC(Nc2nc(N)nc(C(C)C)n2)C2CCC2)c1 (stereo not drawn) [Example 4-23] | very good herbicidal action | very good herbicidal action | good herbicidal action
CC(C)(F)c1nc(N)nc(NC(CCc2ccccc2)C2CC2)n1 (stereo not drawn) [Example 9-10] | very good herbicidal action | very good herbicidal action | good herbicidal action
CC(C)(F)c1nc(N)nc(NC(CCc2ccccc2)C2CCC2)n1 (stereo not drawn) [Example 4-2, 2-Amino-4-(1-fluoro-1-methylethyl)-6-(3-phenyl-1-cyclobutyl-1-propylamino)-1,3,5-triazine] | very good herbicidal action | very good herbicidal action | good herbicidal action
CC(C)(C#N)c1nc(N)nc(NC(CCc2ccccc2)C2CC2)n1 (stereo not drawn) [Example 9-4] | very good herbicidal action | very good herbicidal action | good herbicidal action
CC(C)(F)c1nc(N)nc(NC(CCc2cccc(F)c2)C2CC2)n1 (stereo not drawn) [Example 9-5] | very good herbicidal action | very good herbicidal action | good herbicidal action
CC(C)c1nc(N)nc(NC(CCc2ccccc2)C2CCC2)n1 (stereo not drawn) [Example 4-1] | very good herbicidal action | very good herbicidal action | good herbicidal action
Cc1cccc(CCC(Nc2nc(N)nc(C(C)(C)F)n2)C2CCC2)c1 (stereo not drawn) [Example 4-15] | very good herbicidal action | very good herbicidal action | good herbicidal action
